Results published in patent publication US9023789B2, “Amylin analogs and pharmaceutical compositions thereof” (Novo Nordisk A/S, priority 2012, dated 2015).
pIC50: −log10 of the molar value. Like-named read-outs stand apart in the source and are kept apart here. Numbered stars: 1 amine (or outer) side, 2 acyl side, 3 side chain; on linkers, the order of the positions; unused ones are H or OH. Bridge positions count the residues as written; N and C are the ends. Peptide text beside a SMILES is read from it. * marks the point of attachment. C20 diacid = O=C(O)CCCCCCCCCCCCCCCCCCC(=O)*; γGlu = O=C(O)[C@H](CCC(=O)[*:2])N[*:1]

What was measured:
[1] = ASSAY (III) ThT fibrillation assay for physical stability; format: physicochemical
Text: Assay (III)—ThT Fibrillation Assays for the Assessment of Physical Stability of Protein Formulations Low physical stability of a polypeptide may lead to amyloid fibril formation, which is observed as well-ordered, thread-like macromolecular structures in the sample eventually resulting in gel formation. This has traditionally been measured by visual inspection of the sample. However, that kind of measurement is very subjective and depending on the observer. Therefore, the application of a small molecule indicator probe is much more advantageous. Thioflavin T (ThT) is such a probe and has a distinct fluorescence signature when binding to fibrils [Naiki et al. (1989) Anal. […] LeVine (1999) Methods. Enzymol. […], 274-284]. The time course for fibril formation can be described by a sigmoidal curve with the following expression [Nielsen et al. (2001) Biochemistry 40, 6036-6046]; […] Here, F is the ThT fluorescence at the time t. The constant t0 is the time needed to reach 50% of maximum fluorescence. […] Few of those intermediates nucleate to form a template onto which further intermediates may assembly and the fibrillation proceeds. The lag-time corresponds to the interval in which the critical mass of nucleus is built up and the apparent rate constant is the rate with which the fibril itself is formed. Sample Preparation Samples were prepared freshly before each assay. Each sample composition is described in each example. The pH of the sample was adjusted to the desired value using appropriate amounts of concentrated NaOH and HClO4 or HCl. Thioflavin T was added to the samples from a stock solution in H2O to a final concentration of 1 μM. Sample aliquots of 200 μl were placed in a 96 well microtiter plate (Packard OptiPlate™96, white polystyrene). Usually, four or eight replica of each sample (corresponding to one test condition) were placed in one column of wells. The plate was sealed with Scotch Pad (Qiagen). Incubation and Fluorescence Measurement Incubation at given temperature, shaking and measurement of the ThT fluorescence emission were done in a Fluoroskan Ascent FL fluorescence platereader or Varioskan platereader (Thermo Labsystems). The temperature was adjusted to 37° C. The orbital shaking was adjusted to 960 rpm with an amplitude of 1 mm in all the presented data. Fluorescence measurement was done using excitation through a 444 nm filter and measurement of emission through a 485 nm filter. Each run was initiated by incubating the plate at the assay temperature for 10 min. The plate was measured every 20 minutes for a desired period of time. Between each measurement, the plate was shaken and heated as described. Data Handling The measurement points were saved in Microsoft Excel format for further processing and curve drawing and fitting was performed using GraphPad Prism. The background emission from ThT in the absence of fibrils was negligible. The data points are typically a mean of four or eight samples and shown with standard deviation error bars. Only data obtained in the same experiment (i.e. samples on the same plate) are presented in the same graph ensuring a relative measure of fibrillation between experiments. The data set may be fitted to Eq. […] However, since full sigmodial curves in this case are not always achieved during the measurement time, the degree of fibrillation is expressed as ThT fluorescence tabulated as the mean of the samples and shown with the standard deviation at various time points. Measurement of Initial and Final Concentrations The polypeptide concentration in each of the tested formulations were measured both before application in the ThT fibrillation assay (“Initial”) and after completion of the ThT fibrillation (“After ThT assay”). Concentrations were determined by reverse HPLC methods using a pramlintide standard as a reference. Before measurement after completion 150 μl was collected from each of the replica and transferred to an Eppendorf tube. These were centrifuged at 30000 G for 40 mins. […]

[2] = target: T1, human amylin receptor (membranes from Amylin 3(a)/CRE-luc cells) (Homo sapiens, UniProt O60896+P30988); assay: ASSAY (V) binding to the human amylin receptor (SPA, 125I-rat amylin);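 further: competition binding of cell membranes (35 ng/µL) mixed with SPA beads in 384-well plates at 40 µL total volume, read by scintillation counting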
T1 construct: expressed in transfected cells
T1 sequence (P30988 25-474): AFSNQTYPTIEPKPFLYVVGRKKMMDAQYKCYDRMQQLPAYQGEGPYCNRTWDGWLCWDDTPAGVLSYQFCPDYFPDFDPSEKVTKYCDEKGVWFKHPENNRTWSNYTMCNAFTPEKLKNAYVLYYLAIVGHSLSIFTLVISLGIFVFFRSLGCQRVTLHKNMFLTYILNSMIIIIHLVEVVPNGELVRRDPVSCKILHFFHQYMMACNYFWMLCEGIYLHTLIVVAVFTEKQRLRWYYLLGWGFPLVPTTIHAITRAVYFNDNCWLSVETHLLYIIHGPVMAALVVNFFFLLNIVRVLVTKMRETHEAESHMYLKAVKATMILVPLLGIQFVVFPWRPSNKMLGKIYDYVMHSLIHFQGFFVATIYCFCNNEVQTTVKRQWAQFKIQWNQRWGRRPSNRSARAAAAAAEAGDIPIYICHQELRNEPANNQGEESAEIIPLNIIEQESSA
T1 sequence (O60896 24-148 partner): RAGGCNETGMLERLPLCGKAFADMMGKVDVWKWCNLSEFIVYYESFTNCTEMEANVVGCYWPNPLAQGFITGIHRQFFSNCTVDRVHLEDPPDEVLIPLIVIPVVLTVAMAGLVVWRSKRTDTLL

[3] = target: T2, human amylin 3(a) receptor (human calcitonin receptor + RAMP-3) in BHK570 cells (Homo sapiens, UniProt O60896+P30988); assay: ASSAY (II)a functional assay, human amylin receptor (CRE luciferase); format: cell-based
T2 construct: expressed in transfected cells
Text: 1. Luciferase Assay Outline
Activation of calcitonin and amylin (coexpression of calcitonin receptor and receptor activity modifying proteins (RAMP)) receptors lead to increased intracellular concentrations of cAMP. Consequently, transcription is activated by promoters containing multiple copies of the cAMP response element (CRE). It is thus possible to measure amylin activity by the use of a CRE luciferase reporter gene introduced into BHK cells also expressing calcitonin or amylin receptors.
2. Construction of Calcitonin (a)- and Amylin 3(a)-Receptor/CRE-Luc Cell Line.
The cell line was further transfected with RAMP-3, using standard methods. This turns the calcitonin receptor into an amylin 3(a) receptor. Methotrexate, Neomycin, and Hygromycin are selection markers for luciferase, the calcitonin receptor, and RAMP-3, respectively.
To perform activity assays, BHK calcitonin (a) receptor- or amylin 3(a)-receptor/CRE-luc cells were seeded in white 96 well culture plates at a density of about 20.000 cells/well. […] After incubation overnight at 37° C. and 5% CO2, the growth medium was replaced by 50 μl/well assay medium (DMEM (without phenol red), Glutamax™, 10% FBS, and 10 mM Hepes, pH 7.4). Further, 50 μl/well of standard or sample in assay buffer were added. After 3 hours incubation at 37° C. and 5% CO2, the assay medium with standard or sample were removed and replaced by 100 μl/well PBS. Further, 100 μl/well LucLite™ was added. The plates were sealed and incubated at room temperature for 30 minutes. Finally, luminescence was measured on a TopCounter (Packard) in SPC (single photon counting) mode.

[4] = ASSAY (IV) determination of solubility; format: physicochemical
Description: Assay (IV)—Determination of Solubility
The polypeptide was dissolved in water at −500 nmol/ml and mixed 1:1 with a series of buffers (100 mM glycylglycine pH 3.0, 100 mM glycylglycine pH 4.0, 100 mM glycylglycine pH 5.0, 100 mM bistrispropane pH 6.0, 100 mM bistrispropane pH 6.5, 100 mM bistrispropane pH 7.0, 100 mM bistrispropane pH 7.5, 100 mM bistrispropane pH 8.0). After 18 hours at room temperature the samples were centrifuged and the polypeptide concentration determined by UPLC.

[5] = target: T3, rat amylin receptor (rat calcitonin receptor + rat RAMP 3) (Rattus norvegicus, UniProt P32214+Q9JJ73); assay: ASSAY (VI) binding to the rat amylin receptor; conditions: Table 7
T3 construct: expressed in transfected cells; host or cells: BHK tk'ts 13 (transient, FuGENE 6), membranes
T3 sequence (P32214 25-479 isoform P32214-2 limits assumed): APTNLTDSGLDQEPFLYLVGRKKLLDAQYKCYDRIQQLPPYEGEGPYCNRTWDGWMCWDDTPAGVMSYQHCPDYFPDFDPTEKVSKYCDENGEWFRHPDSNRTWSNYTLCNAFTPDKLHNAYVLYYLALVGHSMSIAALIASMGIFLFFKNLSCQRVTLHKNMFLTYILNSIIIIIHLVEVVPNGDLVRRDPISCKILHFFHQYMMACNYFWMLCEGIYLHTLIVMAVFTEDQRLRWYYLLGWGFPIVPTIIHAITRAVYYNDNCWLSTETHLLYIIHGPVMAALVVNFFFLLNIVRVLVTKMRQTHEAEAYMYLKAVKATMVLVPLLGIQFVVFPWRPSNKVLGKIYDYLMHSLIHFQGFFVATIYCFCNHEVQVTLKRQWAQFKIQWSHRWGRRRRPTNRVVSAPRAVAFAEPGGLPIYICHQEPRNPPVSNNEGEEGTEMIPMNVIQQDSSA
T3 sequence (Q9JJ73 23-147 partner): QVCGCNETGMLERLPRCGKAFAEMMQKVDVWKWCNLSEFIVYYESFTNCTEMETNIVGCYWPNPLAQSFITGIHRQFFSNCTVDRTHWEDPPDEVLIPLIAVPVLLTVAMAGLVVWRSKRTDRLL
Description: Assay (VI)—Determination of the Binding to the Rat Amylin Receptor […] The BHK tk′ts 13 cells were transiently transfected with rat calcitonin receptor using FuGENE® 6 (Roche), according to the manufacturer's recommendations. […] Approximately 48 hours after transfection, the cells were harvested and membranes were prepared.

[6] = Table 5, selectivity, hCTR bind IC50 / hAmylin-R bind IC50
[7] = Table 7, human binding selectivity, included for comparison
[8] = hCTR funct. EC50 over hAmylin-R funct. EC50
[9] = human functional selectivity: hCTR funct. EC50 / hAmylin-R funct. EC50

SMILES | ThT pH 4.0 lag time (h) [1] | Ratio hCT/hAmylin binding [2, 6] | Ratio hCT/hAmylin binding [2, 7] | Ratio hCT/hAmylin funct. ([3]; hCTR funct. EC50 divided by hAmylin-R funct. EC50) | Ratio hCT/hAmylin funct. [3, 8] | Ratio hCT/hAmylin funct. [3, 9] | solubility at 18 h ([4]; bistrispropane buffer, pH 6.5, read-out: Solubility pH 6.5 Concentration) | solubility at 18 h ([4]; bistrispropane buffer, pH 7.5, read-out: Solubility pH 7.5 Concentration) | solubility at 18 h ([4]; bistrispropane buffer, pH 6.0, read-out: Solubility pH 6.0 Concentration) | solubility at 18 h ([4]; bistrispropane buffer, pH 7.0, read-out: Solubility pH 7.0 Concentration) | solubility at 18 h ([4]; bistrispropane buffer, pH 8.0, read-out: Solubility pH 8.0 Concentration) | solubility at 18 h ([4]; glycylglycine buffer, pH 3.0, read-out: Solubility pH 3.0 Concentration) | solubility at 18 h ([4]; glycylglycine buffer, pH 4.0, read-out: Solubility pH 4.0 Concentration) | solubility at 18 h ([4]; glycylglycine buffer, pH 5.0, read-out: Solubility pH 5.0 Concentration) | Ratio hCT/hAmylin funct. ([3]; hCTR funct. EC50 / hAmylin-R funct. EC50) | pIC50 ([5]; binding to rat amylin receptor, read-out: rAmylin-R bind IC50) | Ratio rCT/rAmylin binding ([5]; rat binding selectivity, rCTR IC50 / rAmylin-R IC50)
CC[C@H](C)[C@H](NC(=O)[C@H](C)NC(=O)CNC(=O)[C@H](Cc1ccccc1)NC(=O)[C@H](CC(N)=O)NC(=O)[C@@H]1CCCN1C(=O)[C@H](CO)NC(=O)[C@H](CO)NC(=O)[C@H](Cc1c[nH]cn1)NC(=O)[C@H](CCCNC(=N)N)NC(=O)[C@H](CC(C)C)NC(=O)[C@H](Cc1ccccc1)NC(=O)[C@H](CCC(=O)O)NC(=O)[C@H](C)NC(=O)[C@H](CC(C)C)NC(=O)[C@H](CCCNC(=N)N)NC(=O)[C@H](CCC(N)=O)NC(=O)[C@@H](NC(=O)[C@H](C)NC(=O)[C@@H]1CSSC[C@H](NC(=O)[C@H](CCCCN)NC(=O)CC[C@H](NC(=O)CCCCCCCCCCCCCCCCCCC(=O)O)C(=O)O)C(=O)N[C@@H](CC(N)=O)C(=O)N[C@@H]([C@@H](C)O)C(=O)N[C@@H](C)C(=O)N[C@@H]([C@@H](C)O)C(=O)N1)[C@@H](C)O)C(=O)N1CCC[C@H]1C(=O)N[C@@H](CO)C(=O)N[C@@H](CO)C(=O)N[C@H](C(=O)N[C@@H](CC(N)=O)C(=O)N[C@H](C(=O)NCC(=O)N[C@@H](CO)C(=O)N[C@@H](CC(N)=O)C(=O)N[C@H](C(=O)N[C@@H](Cc1ccc(O)cc1)C(N)=O)[C@@H](C)O)C(C)C)[C@@H](C)O [Example 9] | 19 h | 8.0 | 8.0 | 7.4 | 7.4 | 7.4 | ≥ 200 µM | ≥ 200 µM | ≥ 200 µM | ≥ 200 µM | ≥ 200 µM | ≥ 200 µM | ≥ 200 µM | ≥ 200 µM | – | – | –
CC(C)C[C@H](NC(=O)[C@H](CCCNC(=N)N)NC(=O)[C@H](CCC(N)=O)NC(=O)[C@@H](NC(=O)[C@H](C)NC(=O)[C@@H]1CSSC[C@H](NC(=O)[C@H](CCCCN)NC(=O)CC[C@H](NC(=O)CCCCCCCCCCCCCCCCCCC(=O)O)C(=O)O)C(=O)N[C@@H](CC(N)=O)C(=O)N[C@@H]([C@@H](C)O)C(=O)N[C@@H](C)C(=O)N[C@@H]([C@@H](C)O)C(=O)N1)[C@@H](C)O)C(=O)N[C@@H](C)C(=O)N[C@@H](CCC(=O)O)C(=O)N[C@@H](Cc1ccccc1)C(=O)N[C@@H](CC(C)C)C(=O)N[C@@H](CCCNC(=N)N)C(=O)N[C@@H](Cc1c[nH]cn1)C(=O)N[C@@H](CO)C(=O)N[C@@H](CO)C(=O)N1CCC[C@H]1C(=O)N[C@@H](CC(N)=O)C(=O)N[C@@H](Cc1ccccc1)C(=O)NCC(=O)N[C@@H](C)C(=O)N1CCC[C@H]1C(=O)N[C@@H](CC(C)C)C(=O)N[C@@H](CO)C(=O)N[C@@H](CO)C(=O)N[C@H](C(=O)N[C@@H](CC(N)=O)C(=O)N[C@H](C(=O)NCC(=O)N[C@@H](CO)C(=O)N[C@@H](CC(N)=O)C(=O)N[C@H](C(=O)N1CCC[C@H]1C(N)=O)[C@@H](C)O)C(C)C)[C@@H](C)O [Example 5] ({C20 diacid-γGlu}-KCNTATCATQRLAEFLRHSSPNFGAPLSSTNVGSNTP-NH2; disulfide 2-7) | – | 1.4 | 1.4 | – | 1.0 | 1.0 | – | – | – | – | – | – | – | – | 1.0 | 8.89 | 3.6
